Experimental data published in US6492426B1, “Use of 1-aminoindan derivatives for treatment of mania in bipolar mood disorder” (priority 1999, dated 2002).
“And” between values parts separate entries of the source, which are not always exact repeats. Equal entries are not always repeated.

Test system: amphetamine-induced hyperactivity in rats
Test: amphetamine-induced hyperactivity model of mania in rats (automated activity monitors)
Format: in vivo, Sprague Dawley rats
Procedure: Evaluation of possible anti-bipolar effects of compounds 1 to 4 was effected by an amphetamine-induced hyperactivity model of mania in rats. Each of the compounds was examined in a separate experiment and compared with a control group, treated with the same dose of amphetamine.
Twenty Sprague Dawley rats, weighing 200-250 g served for each of the four (4) experiments. Rats were housed in a colony room with constant temperature (22° C.), 12 h light/dark cycle and free access to food and water. Each experiment consisted of two groups (n=10 per group), one group was treated with the compound (1 to 4) and the other with vehicle solution. In experiments 1-4, the drugs were administered intraperitoneally (IP). All experimental procedures were conducted during the light phase of the light/dark cycle.
Amphetamine (0.5 mg/kg, sub-cutaneous (s.c.), diluted in de-ionized water) was injected into all rats (both groups of each experiment) immediately prior to behavioral testing. In experiments 1 to 4, compounds (R)-N-acetyl aminoindan (1); (S)-N-indanyl glycinamide HCl (2); (rac)-N-(2-aminoacetyl)-1-aminoindan HCl (3); and (S)-N-formyl aminoindan (4) were injected twice intraperitoneally (IP) at a dose of 75 mg/kg, 19 h and 3 h prior to behavioral testing in experiments. All compounds were suspended in a 5% methyl cellulose solution. The vehicle solution was administered to the control animals.
Immediately after amphetamine injection, rats were placed in automated activity monitors and their activity levels were scored every 10 minutes in the 30 minute time span for experiments 1 to 4. Activity scores included separate measurements of horizontal (locomotion) and of vertical (rearing) activity.
Repeated ANOVA measurements were used to examine the effects of compounds 1 to 4 on locomotor and on vertical activity. One factor measured the treatment of the rats using compounds 1 to 4 or the control vehicle; the repeated measure factor was time (three 10 minute intervals). Post hoc LSD (least significant difference) tests were used to determine whether significant differences occurred in different time periods, where relevant.

[1] = group mean n=10, 75 mg/kg IP twice, amphetamine 0.5 mg/kg s.c., cumulative to 20 min
[2] = group mean n=10, 75 mg/kg IP twice, amphetamine 0.5 mg/kg s.c., cumulative to 30 min
[3] = group mean n=10, 75 mg/kg IP twice, amphetamine 0.5 mg/kg s.c., first 10 min
[4] = group mean n=10, 75 mg/kg IP twice, amphetamine 0.5 mg/kg s.c., second 10 min interval
[5] = group mean n=10, 75 mg/kg IP twice, amphetamine 0.5 mg/kg s.c., third 10 min interval
[6] = individual rat, 75 mg/kg IP twice, amphetamine 0.5 mg/kg s.c., cumulative to 20 min
[7] = individual rat, 75 mg/kg IP twice, amphetamine 0.5 mg/kg s.c., cumulative to 30 min
[8] = individual rat, 75 mg/kg IP twice, amphetamine 0.5 mg/kg s.c., non cumulative, second 10 min interval
[9] = individual rat, 75 mg/kg IP twice, amphetamine 0.5 mg/kg s.c., non cumulative, third 10 min interval

O=CN[C@H]1CCc2ccccc21 [Compound 4, (S)-N-formyl aminoindan]
Effect on amphetamine-induced locomotor activity versus control (ANOVA) (75 mg/kg IP, 19 h and 3 h before testing, result in words): significantly reduced amphetamine-induced locomotor activity | Effect on activity levels of rats (summary) (75 mg/kg IP, amphetamine-treated rats, result in words): reduced the activity levels | Anti-manic potential from the tested model (conclusion) (based on the tested model and doses, result in words): show anti-manic potential | Locomotor activity, 20 min, mean [1]: 1035 counts | Vertical activity, 20 min, mean [1]: 24 counts | Locomotor activity, 30 min, mean [2]: 1523 counts | Vertical activity, 30 min, mean [2]: 35 counts | Locomotor activity, 10 min, mean [3]: 553 counts | Vertical activity, 10 min, mean [3]: 17 counts | Locomotor activity, 20-10 min, mean [4]: 482 counts | Vertical activity, 20-10 min, mean [4]: 7 counts | Locomotor activity, 30-20 min, mean [5]: 488 counts | Vertical activity, 30-20 min, mean [5]: 11 counts | Locomotor activity, 10 min (individual rat, 75 mg/kg IP twice, 19 h and 3 h before testing, amphetamine 0.5 mg/kg s.c., first 10 min): 453 counts and 589 counts and 482 counts and 508 counts and 596 counts and 558 counts and 481 counts and 551 counts and 691 counts and 619 counts | Locomotor activity, 20 min [6]: 919 counts and 1099 counts and 896 counts and 840 counts and 1179 counts and 1113 counts and 923 counts and 988 counts and 1306 counts and 1088 counts | Vertical activity, 20 min [6]: 10 counts and 40 counts and 21 counts and 7 counts and 30 counts and 17 counts and 27 counts and 4 counts and 37 counts and 43 counts | Locomotor activity, 30 min [7]: 1371 counts and 1632 counts and 1253 counts and 1031 counts and 1789 counts and 1730 counts and 1422 counts (2×) and 2061 counts and 1519 counts | Vertical activity, 30 min [7]: 15 counts and 55 counts and 26 counts and 7 counts and 30 counts and 31 counts and 38 counts and 14 counts and 83 counts and 46 counts | Vertical activity, 10 min (individual rat, 75 mg/kg IP twice, amphetamine 0.5 mg/kg s.c., first 10 min): 9 counts and 30 counts (2×) and 13 counts and 7 counts and 12 counts (2×) and 21 counts and 3 counts and 34 counts | Locomotor activity, 20-10 min [8]: 466 counts and 510 counts and 414 counts and 332 counts and 583 counts and 555 counts and 442 counts and 437 counts and 615 counts and 469 counts | Vertical activity, 20-10 min [8]: 1 counts (2×) and 10 counts and 8 counts and 0 counts and 18 counts and 5 counts and 6 counts and 3 counts and 13 counts | Locomotor activity, 30-20 min [9]: 452 counts and 533 counts and 357 counts and 191 counts and 610 counts and 617 counts and 499 counts and 434 counts and 755 counts and 431 counts | Vertical activity, 30-20 min [9]: 5 counts (2×) and 15 counts and 0 counts (2×) and 14 counts and 11 counts and 10 counts and 46 counts and 3 counts
